Earlier results, collected in patent US10821087B2, “Stabilized injectable emulsion of Propofol and Ketamine” (NEON LABORATORIES LIMITED, priority 2015, dated 2020).

Tested on: Propofol induced pain
Details: 100 μg/kg Ketamine administered just before Propofol

In the case of `CNC1(c2ccccc2Cl)CCCCC1=O` (centres unmarked) [Ketamine], the adverse hemodynamic effects is given as “without significant adverse hemodynamic effects” and the “incidence and intensity of Propofol induced pain” value is given as “reduce the incidence and intensity of Propofol induced pain”.
